According to ChEMBL document CHEMBL4145517, “Advances on photodynamic therapy of melanoma through novel ring-fused 5,15-diphenylchlorins” (Eur J Med Chem, 2018):
Calls of active or inactive are those of the source. The calls are words filed in the database; no cut-off is given here.

Assays:
A-375 [1] = assay: Increase in expression of reduced glutathione in human A375 cells up to 500 nM preincubated for 24 hrs followed by exposure to light with fluence rate of 7.5 mW/cm2 at 10 J and measured after 24 hrs by mercury orange staining-based fluorescence analysis; type: functional, cell-based
A-375 [2] = assay: Phototoxicity against human A375 cells assessed as reduction in cell viability up to 500 nM preincubated for 24 hrs followed by exposure to light with fluence rate of 7.5 mW/cm2 at 10 J and measured after 24 hrs in presence of singlet oxygen scavenger sodium azide by MTT assay; type: functional, cell-based
A-375 [3] = assay: Decrease in intracellular superoxide anion generation in human A375 cells at 500 nM preincubated for 24 hrs followed by exposure to light with fluence rate of 7.5 mW/cm2 at 10 J and measured after 24 hrs by dihydroethidium staining-based fluorescence analysis; type: functional, cell-based
A-375 [4] = assay: Cell cycle arrest in human A375 cells assessed as accumulation at pre-G0 phase up to 500 nM preincubated for 24 hrs followed by exposure to light with fluence rate of 7.5 mW/cm2 at 10 J and measured after 24 hrs by propidium iodide/RNase-staining based flow cytometric analysis; type: functional
[5] = Dark toxicity against human A375 cells at 1 to 10 uM after 24 hrs by MTT assay; type: cell-based; conditions: a-375, 24 h
A-375 [6] = assay: Disruption of mitochondrial membrane potential in human A375 cells at 50 nM preincubated for 24 hrs followed by exposure to light with fluence rate of 7.5 mW/cm2 at 10 J and measured after 24 hrs by JC-1 staining-based assay; type: functional, cell-based
A-375 [7] = assay: Decrease in intracellular peroxides generation in human A375 cells at 500 nM preincubated for 24 hrs followed by exposure to light with fluence rate of 7.5 mW/cm2 at 10 J and measured after 24 hrs by DCFH2-DA staining-based fluorescence analysis; type: functional, cell-based
A-375 [8] = assay: Induction of apoptosis in human A375 cells assessed as increase in necrotic cells at 50 nM preincubated for 24 hrs followed by exposure to light with fluence rate of 7.5 mW/cm2 at 10 J and measured after 24 hrs by Annexin-V/propidium iodide stainin-based FACS analysis; type: functional, cell-based
A-375 [9] = assay: Phototoxicity against human A375 cells assessed as reduction in cell viability up to 500 nM preincubated for 24 hrs followed by exposure to light with fluence rate of 7.5 mW/cm2 at 10 J and measured after 24 hrs in presence of hydroxyl radical scavenger D-mannitol by MTT assay; type: functional, cell-based
A-375 [10] = assay: Photocytotoxicity against human A375 cells assessed as decrease in cell viability by measuring protein content at >= 50 nM preincubated for 24 hrs followed by exposure to light with fluence rate of 7.5 mW/cm2 at 10 J and measured after 24 hrs by sulforhodamine B assay; type: functional, cell-based
A-375 [11] = assay: Induction of apoptosis in human A375 cells assessed as decrease in living cells at 500 nM preincubated for 24 hrs followed by exposure to light with fluence rate of 7.5 mW/cm2 at 10 J and measured after 24 hrs by Annexin-V/propidium iodide stainin-based FACS analysis; type: functional; design: scale not given: the % may be the effect or the level left
A-375 [12] = assay: Photocytotoxicity against human A375 cells at 5 to 50 nM preincubated for 24 hrs followed by exposure to light with fluence rate of 7.5 mW/cm2 until 20J and measured after 24 hrs by MTT assay; type: functional, cell-based
A-375 [13] = assay: Induction of p53 expression in human A375 cells at 50 nM preincubated for 24 hrs followed by exposure to light with fluence rate of 7.5 mW/cm2 at 10 J and measured after 24 hrs by Western blot analysis; type: functional, cell-based
A-375 [14] = assay: Disruption of mitochondrial membrane potential in human A375 cells at 500 nM preincubated for 24 hrs followed by exposure to light with fluence rate of 7.5 mW/cm2 at 10 J and measured after 24 hrs by JC-1 staining-based assay; type: functional, cell-based
[15] = Drug uptake in human A375 cells preincubated for 24 hrs followed by exposure to light with fluence rate of 7.5 mW/cm2 at 10 J measured after 24 hrs by fluorescence spectroscopic analysis; type: ADME, cell-based; conditions: a-375, 24 h
A-375 [16] = assay: Photocytotoxicity against human A375 cells preincubated for 24 hrs followed by exposure to light with fluence rate of 7.5 mW/cm2 until 10 J measured after 24 hrs by MTT assay; type: functional, cell-based
A-375 [17] = assay: Photocytotoxicity against human A375 cells at 5 to 500 nM preincubated for 24 hrs followed by exposure to light with fluence rate of 7.5 mW/cm2 until 5 to 10 J and measured after 24 hrs by MTT assay; type: functional, cell-based
[18] = Dark toxicity against human HFF1 cells at 1 to 10 uM after 24 hrs by MTT assay; type: cell-based; conditions: hff-1, 24 h
A-375 [19] = assay: Induction of apoptosis in human A375 cells assessed as increase in necrotic cells at 500 nM preincubated for 24 hrs followed by exposure to light with fluence rate of 7.5 mW/cm2 at 10 J and measured after 24 hrs by Annexin-V/propidium iodide stainin-based FACS analysis; type: functional, cell-based
A-375 [20] = assay: Cell cycle arrest in human A375 cells assessed as accumulation at G1 phase up to 500 nM preincubated for 24 hrs followed by exposure to light with fluence rate of 7.5 mW/cm2 at 10 J and measured after 24 hrs by propidium iodide/RNase-staining based flow cytometric analysis; type: functional
A-375 [21] = assay: Cell cycle arrest in human A375 cells assessed as accumulation at G2/M phase up to 500 nM preincubated for 24 hrs followed by exposure to light with fluence rate of 7.5 mW/cm2 at 10 J and measured after 24 hrs by propidium iodide/RNase-staining based flow cytometric analysis; type: functional
A-375 [22] = assay: Induction of apoptosis in human A375 cells at 50 nM preincubated for 24 hrs followed by exposure to light with fluence rate of 7.5 mW/cm2 at 10 J and measured after 24 hrs by Annexin-V/propidium iodide staining-based FACS analysis; type: functional, cell-based
[23] = Dark toxicity against human A375 cells at 5 to 10 uM after 24 hrs by MTT assay; type: cell-based; conditions: a-375, 24 h
[24] = Dark toxicity against human HFF1 cells at 5 to 10 uM after 24 hrs by MTT assay; type: cell-based; conditions: hff-1, 24 h

Row | Structure (SMILES) | Activity (A-375 [1]) | Activity (A-375 [2]) | Activity (A-375 [3]) | Activity (A-375 [4]) | Activity [5] | Activity (A-375 [6]) | Activity (A-375 [7]) | Activity (A-375 [9]) | Activity (A-375 [10]) | Activity (A-375 [11]) | Activity (A-375 [12]) | Activity (A-375 [13]) | Activity (A-375 [14]) | Drug uptake [15] | IC50 (A-375 [16]) | Activity (A-375 [17]) | Activity [18] | Activity (A-375 [22]) | other results
1 | COC(=O)c1nn2c(c1C(=O)OC)CC1c3nc(cc4ccc([nH]4)c(-c4ccccc4)c4nc(cc5ccc([nH]5)c3-c3ccccc3)C=C4)C1C2 (stereo not drawn) | inactive | Active | Active | Active | Non-Toxic | Active | Active | Active | Active | >50% | Active | Active | Active | Dose-dependent effect | 14.5 nM | Active | Non-Toxic | – | Activity (A-375 [8]): Active
2 | OCc1nn2c(c1CO)CC1c3cc4ccc([nH]4)c(-c4ccccc4)c4nc(cc5ccc([nH]5)c(-c5ccccc5)c(n3)C1C2)C=C4 (stereo not drawn) | inactive | inactive | Active | Active | Non-Toxic | Active | Active | Active | Active | >50% | Active | Active | Active | Dose-dependent effect | 4.9 nM | Active | Non-Toxic | Active | Activity (A-375 [19]): Active; Activity (A-375 [20]): Active; Activity (A-375 [21]): Active
3 | COC(=O)c1nn2c(c1C(=O)OC)CC1c3cc4ccc([nH]4)c(-c4ccccc4)c4nc(cc5ccc([nH]5)c(-c5ccccc5)c(n3)C1C2)C=C4 (stereo not drawn) | inactive | inactive | Active | Active | Non-Toxic | Active | Active | Active | Active | >50% | Active | Active | – | Dose-dependent effect | 14.3 nM | Active | Non-Toxic | Active | –
4 | OCc1nn2c(c1CO)CC1c3nc(cc4ccc([nH]4)c(-c4ccccc4)c4nc(cc5ccc([nH]5)c3-c3ccccc3)C=C4)C1C2 (stereo not drawn) | inactive | Active | Active | Active | – | Active | Active | Active | Active | inactive | Active | Active | – | Dose-dependent effect | 2.9 nM | Active | – | Active | Activity [23]: Toxic; Activity [24]: Toxic
